Measurements published in patent US10183021B2, “sGC stimulators” (Ironwood Pharmaceuticals, Inc., priority 2013, dated 2019).
Read-outs that look alike come from different tables or passages of the source.

Legend:
[1] = target: T1, soluble guanylate cyclase (sGC) (Homo sapiens (Human), UniProt Q02108+Q02153); assay: sGC-HEK-cGMP assay, new protocol with DETA-NONOate, LC/MS detection (Example 2C); type: cell-based
[2] = target: T1, soluble guanylate cyclase (sGC); assay: sGC-HEK-cGMP assay with SNP incubation, LC/MS detection (Example 2A); type: cell-based
Outline: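 HEK293 cells with endogenous sGC were pretreated 15 min at 37 °C with 0.5 mM IBMX, then exposed 10 min at 37 °C to compound (added from 0.0001–30 μM solutions) plus SNP (from 10 μM solution). After 0.1 M HCl lysis, cGMP was quantified by LC/MS against a standard curve.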

[3] = read-out: Absolute EC50 (uM) - binned
[4] = HEK293 cells, 10 μM SNP, LC/MS detection, 100% = BAY 41-2272 at 10 μM, read-out: HEK assay Emax - unconstrained (%)
[5] = HEK293 cells, 10 μM SNP, LC/MS detection, top of curve not fitted to 100%, read-out: HEK assay EC50 - unconstrained
[6] = HEK293 cells, 10 μM SNP, LC/MS detection, top of curve fitted to 100%, read-out: HEK assay EC50 - constrained

T1 sequence (Q02153 whole entry): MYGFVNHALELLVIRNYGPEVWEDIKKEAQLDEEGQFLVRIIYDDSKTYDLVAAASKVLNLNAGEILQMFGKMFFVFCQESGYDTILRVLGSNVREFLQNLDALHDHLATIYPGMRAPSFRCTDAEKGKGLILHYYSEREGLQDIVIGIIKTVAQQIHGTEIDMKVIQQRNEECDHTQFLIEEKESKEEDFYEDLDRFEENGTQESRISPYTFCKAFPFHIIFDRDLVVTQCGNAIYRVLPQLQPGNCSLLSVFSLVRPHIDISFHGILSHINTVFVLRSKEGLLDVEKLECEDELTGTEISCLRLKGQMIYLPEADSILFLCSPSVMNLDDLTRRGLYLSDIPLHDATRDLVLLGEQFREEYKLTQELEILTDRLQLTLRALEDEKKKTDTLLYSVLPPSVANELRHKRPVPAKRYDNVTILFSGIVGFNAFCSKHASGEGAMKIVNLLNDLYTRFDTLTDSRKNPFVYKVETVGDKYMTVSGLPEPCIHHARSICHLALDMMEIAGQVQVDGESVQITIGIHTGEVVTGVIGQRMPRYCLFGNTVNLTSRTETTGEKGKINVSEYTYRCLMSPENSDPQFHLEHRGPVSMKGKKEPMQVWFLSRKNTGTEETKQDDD
T1 sequence (Q02108 whole entry): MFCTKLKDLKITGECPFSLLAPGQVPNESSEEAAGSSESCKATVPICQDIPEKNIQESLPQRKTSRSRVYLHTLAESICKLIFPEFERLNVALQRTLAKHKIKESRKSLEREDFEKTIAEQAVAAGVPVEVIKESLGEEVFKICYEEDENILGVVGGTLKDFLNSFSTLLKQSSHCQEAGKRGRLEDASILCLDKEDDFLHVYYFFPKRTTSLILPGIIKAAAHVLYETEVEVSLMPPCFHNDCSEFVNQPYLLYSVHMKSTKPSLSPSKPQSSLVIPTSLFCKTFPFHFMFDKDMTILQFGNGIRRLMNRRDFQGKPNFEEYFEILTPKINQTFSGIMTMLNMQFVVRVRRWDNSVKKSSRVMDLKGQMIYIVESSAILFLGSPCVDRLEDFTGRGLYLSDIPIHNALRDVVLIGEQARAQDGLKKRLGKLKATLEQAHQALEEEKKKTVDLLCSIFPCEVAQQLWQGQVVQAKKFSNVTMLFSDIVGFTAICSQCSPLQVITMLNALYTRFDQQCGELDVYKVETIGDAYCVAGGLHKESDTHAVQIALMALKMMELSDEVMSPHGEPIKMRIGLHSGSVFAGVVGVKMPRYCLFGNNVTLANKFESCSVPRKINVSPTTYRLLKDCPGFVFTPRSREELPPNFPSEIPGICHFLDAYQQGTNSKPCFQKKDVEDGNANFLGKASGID

| Structure (SMILES) | EC50 [1, 3] | also measured |
| --- | --- | --- |
| O=C(O)c1cccn1-c1nc(-c2cc(-c3ccon3)n(Cc3ccccc3F)n2)ncc1F [Compound I-104] | > 1 µM | Emax [2, 4]: 20 to 40%; EC50 [2, 5]: 1000 to 5000 nM |
| O=C(O)[C@H]1C[C@@H](C(F)(F)F)CCN1c1nc(-c2cc(-c3ccon3)n(Cc3ccccc3F)n2)ncc1F (racemic) [Compound I-452] | < 0.1 µM | Emax [2, 4]: 80 to 100%; EC50 [2, 5]: 100 to 500 nM |
| O=C(O)[C@H](Cc1ccc(O)cc1)Nc1nc(-c2cc(-c3ccon3)n(Cc3ccccc3F)n2)ncc1F [Compound I-159] | > 1 µM | EC50 [2, 6]: > 10000 nM |
| C[C@H]1CCCN(c2nc(-c3cc(-c4ccon4)n(Cc4cccc(F)c4F)n3)ncc2F)[C@H]1C(=O)O [Compound I-305] | < 0.1 µM | Emax [2, 4]: 0 to 10%; EC50 [2, 5]: > 10000 nM |
| CCOC(=O)CN1CCCN1c1nc(-c2cc(-c3ccon3)n(Cc3ccccc3F)n2)ncc1F [Compound I-213] | < 0.1 µM | Emax [2, 4]: > 120%; EC50 [2, 5]: 500 to 1000 nM |
| O=C(O)C1c2ccccc2CN1c1nc(-c2cc(-c3ccon3)n(Cc3ccccc3F)n2)ncc1F (centres unmarked) [Compound I-149] | > 1 µM | EC50 [2, 6]: > 10000 nM |
| O=C(O)C1CCN1c1nc(-c2cc(-c3ccon3)n(Cc3ccccc3F)n2)ncc1F (centres unmarked) [Compound I-55] | 0.101 to 1 µM | EC50 [2, 6]: 1000 to 5000 nM |
| CNS(=O)(=O)CCNc1nc(-c2cc(-c3ccon3)n(Cc3ccccc3F)n2)ncc1F [Compound I-367] | < 0.1 µM | Emax [2, 4]: 60 to 80%; EC50 [2, 5]: 1 to 100 nM |
| O=C(O)C1CCc2ccccc2N1c1nc(-c2cc(-c3ccon3)n(Cc3ccccc3F)n2)ncc1F (centres unmarked) [Compound I-140] | 0.101 to 1 µM | Emax [2, 4]: 80 to 100%; EC50 [2, 5]: 1000 to 5000 nM |
| O=C(O)[C@@H]1[C@H]2CC[C@H](C2)N1c1nc(-c2cc(-c3ccon3)n(Cc3ccccc3F)n2)ncc1F [Compound I-365] | 0.101 to 1 µM | Emax [2, 4]: 80 to 100%; EC50 [2, 5]: 1000 to 5000 nM |
| COC(=O)N1CCN(c2nc(-c3cc(-c4ccon4)n(Cc4ccccc4F)n3)ncc2F)C(C(=O)O)C1 (centres unmarked) [Compound I-135] | > 1 µM | EC50 [2, 6]: > 10000 nM |
| O=[N+]([O-])c1cnc(-c2cc(-c3ccon3)n(Cc3ccccc3F)n2)nc1N1CCOCC1 [Compound I-14] | > 1 µM | EC50 [2, 6]: > 10000 nM |
| O=C(O)C(F)(F)CNc1nc(-c2cc(-c3ccon3)n(Cc3ccccc3F)n2)ncc1F [Compound I-206] | < 0.1 µM | EC50 [2, 6]: > 10000 nM |
| O=C(O)CCCNc1nc(-c2cc(-c3ccon3)n(Cc3ccccc3F)n2)ncc1F [Compound I-214] | < 0.1 µM | Emax [2, 4]: > 120%; EC50 [2, 5]: 100 to 500 nM |
| NS(=O)(=O)C1CCN(c2nc(-c3cc(-c4ccon4)n(Cc4ccccc4F)n3)ncc2F)CC1 [Compound I-366] | < 0.1 µM | Emax [2, 4]: 40 to 60%; EC50 [2, 5]: 1 to 100 nM |
| CC(C)C[C@H](Nc1nc(-c2cc(-c3ccon3)n(Cc3ccccc3F)n2)ncc1F)C(=O)O [Compound I-88] | 0.101 to 1 µM | Emax [2, 4]: 60 to 80%; EC50 [2, 5]: 1000 to 5000 nM |
| CS(=O)(=O)C1CCN(c2nc(C3=NC(Cc4ccccc4F)C(c4ccon4)=C3)ncc2F)C1 (centres unmarked) [Compound I-192] | < 0.1 µM | Emax [2, 4]: > 120%; EC50 [2, 5]: 1 to 100 nM |
| O=C(O)C1CN(c2nc(-c3cc(-c4ccon4)n(Cc4ccccc4F)n3)ncc2F)C1 [Compound I-53] | 0.101 to 1 µM | EC50 [2, 6]: 1000 to 5000 nM |
| O=C1CN(c2nc(-c3cc(-c4ccon4)n(Cc4ccccc4F)n3)ncc2F)CCN1 [Compound I-59] | 0.101 to 1 µM | EC50 [2, 6]: > 10000 nM |
| O=C(O)C1CNCCN1c1nc(-c2cc(-c3ccon3)n(Cc3ccccc3F)n2)ncc1F (centres unmarked) [Compound I-133] | > 1 µM | EC50 [2, 6]: > 10000 nM |
| CN(CCS(N)(=O)=O)c1nc(-c2cc(-c3ccon3)n(Cc3ccccc3F)n2)ncc1F [Compound I-374] | < 0.1 µM | Emax [2, 4]: 100 to 120%; EC50 [2, 5]: 100 to 500 nM |

| Structure (SMILES) | EC50 [1, 3] | also measured |
| --- | --- | --- |
| O=C(O)C1(Nc2nc(-c3cc(-c4ccon4)n(Cc4ccccc4F)n3)ncc2F)CC1 [Compound I-85] | > 1 µM | EC50 [2, 6]: > 10000 nM |
| CN(CC(=O)NS(=O)(=O)c1ccccc1)c1nc(-c2cc(-c3ccon3)n(Cc3ccccc3F)n2)ncc1F [Compound I-361] | < 0.1 µM | Emax [2, 4]: 0 to 10%; EC50 [2, 5]: 100 to 500 nM |
| O=C(O)CC1(Nc2nc(-c3cc(-c4ccon4)n(Cc4ccccc4F)n3)ncc2F)CCOCC1 [Compound I-245] | 0.101 to 1 µM | EC50 [2, 6]: 100 to 500 nM |
| CC(C)(C)OC(=O)N1CCN(c2nc(-c3cc(-c4ccon4)n(Cc4ccccc4F)n3)ncc2F)C(C(=O)O)C1 (centres unmarked) [Compound I-101] | 0.101 to 1 µM | EC50 [2, 6]: 5000 to 10000 nM |
| Oc1noc2c1CCN(c1nc(-c3cc(-c4ccon4)n(Cc4ccccc4F)n3)ncc1F)C2 [Compound I-364] |  | EC50 [1]: < 0.1 µM; EC50 [2]: 1 to 100 nM; Emax ([2]; HEK293, read-out: HEK assay Emax - unconstrained (%)): 80 to 100% |
| O=C(CN1Cc2ccccc2C1=O)Nc1ccnc(-c2cc(-c3ccon3)n(Cc3ccccc3F)n2)n1 [Compound I-599] | > 1 µM |  |
| O=C(Nc1ccnc(-c2cc(-c3ccon3)n(Cc3ccccc3F)n2)n1)c1ccco1 [Compound I-560] | > 1 µM |  |
| Fc1ccccc1Cn1nc(-c2ncc(F)c(N3CCc4[nH]nc(C(F)(F)F)c4C3)n2)cc1-c1ccon1 [Compound I-346] | > 1 µM |  |
| NS(=O)(=O)CCCC(=O)Nc1ccnc(-c2cc(-c3ccon3)n(Cc3ccccc3F)n2)n1 [Compound I-486] | > 1 µM |  |
| O=C(O)[C@H]1[C@H]2CC[C@H](C2)[C@H]1Nc1nc(-c2cc(-c3ccon3)n(Cc3ccccc3F)n2)ncc1F (racemic) [Compound I-379] | < 0.1 µM |  |
| O=C(Nc1ccnc(-c2cc(-c3ccon3)n(Cc3ccccc3F)n2)n1)c1cscn1 [Compound I-549] | > 1 µM |  |
| O=C(Nc1ccnc(-c2cc(-c3ccon3)n(Cc3ccccc3F)n2)n1)C1(OCc2ccccc2)CCOCC1 [Compound I-525] | > 1 µM |  |
| O=C1CCC(C(=O)Nc2ccnc(-c3cc(-c4ccon4)n(Cc4ccccc4F)n3)n2)N1 (centres unmarked) [Compound I-459] | > 1 µM |  |
| O=S(=O)(CCO)Nc1ccnc(-c2cc(-c3ccon3)n(Cc3ccccc3F)n2)n1 [Compound I-539] | > 1 µM |  |
| O=C(Nc1nc(-c2cc(-c3ccon3)n(Cc3ccccc3F)n2)ncc1F)C(F)(F)F [Compound I-465] | 0.101 to 1 µM |  |
| Oc1nc(-c2cc(-c3ccon3)n(CCC(F)(F)F)n2)ncc1F [Compound I-507] | > 1 µM |  |
| O=S(=O)(O)C1CCN(c2nc(-c3cc(-c4ccon4)n(Cc4ccccc4F)n3)ncc2F)CC1 [Compound I-363] | > 1 µM |  |
| O=C(Cc1ccccc1)NCC(=O)Nc1ccnc(-c2cc(-c3ccon3)n(Cc3ccccc3F)n2)n1 [Compound I-597] | > 1 µM |  |
| CS(=O)(=O)CC(=O)Nc1nc(-c2cc(-c3ccon3)n(Cc3ccccc3F)n2)ncc1F [Compound I-616] | 0.101 to 1 µM |  |
| O=c1nc[nH]n1-c1nc(-c2cc(-c3ccon3)n(Cc3ccccc3F)n2)ncc1F [Compound I-442] | > 1 µM |  |
| CCOc1c(Nc2ccnc(-c3cc(-c4ccon4)n(Cc4ccccc4F)n3)n2)c(=O)c1=O [Compound I-327] | > 1 µM |  |

| Structure (SMILES) | EC50 [1, 3] | also measured |
| --- | --- | --- |
| O[C@@H]1Cc2ccccc2[C@@H]1Nc1nc(-c2cc(-c3ccon3)n(Cc3ccccc3F)n2)ncc1F [Compound I-395] | < 0.1 µM |  |
| NC(=O)C(O)(CNc1nc(-c2cc(-c3ccon3)n(Cc3cccc(F)c3F)n2)ncc1F)C(F)(F)F (centres unmarked) [Compound I-522] | < 0.1 µM |  |
| Cc1cc(-c2ncc(F)c(=O)[nH]2)nn1Cc1ccccc1F [Compound I-410] | > 1 µM |  |
| CC(=O)c1cc(-c2ncc(F)c(N(C)CC3(C(=O)O)CC3)n2)nn1Cc1ccccc1F [Compound I-451] | 0.101 to 1 µM |  |
| O=C(Nc1ccnc(-c2cc(-c3ccon3)n(Cc3ccccc3F)n2)n1)c1cccc(=O)[nH]1 [Compound I-553] | > 1 µM |  |
| CCN(CC)c1nc(-c2cc(-c3ccon3)n(CCC(F)(F)F)n2)ncc1F [Compound I-517] | > 1 µM |  |
| O=C(O)CCCCNc1nc(-c2cc(-c3ccon3)n(Cc3ccccc3F)n2)ncc1F [Compound I-449] | < 0.1 µM |  |
| CC(=O)NCC(=O)Nc1ccnc(-c2cc(-c3ccon3)n(Cc3ccccc3F)n2)n1 [Compound I-535] | 0.101 to 1 µM |  |
| CO[C@H](C(=O)Nc1ccnc(-c2cc(-c3ccon3)n(Cc3ccccc3F)n2)n1)c1ccccc1 [Compound I-559] | 0.101 to 1 µM |  |
| NC(=O)C1(Nc2nc(-c3cc(-c4ccon4)n(Cc4ccccc4F)n3)ncc2F)CC1 [Compound I-538] | < 0.1 µM |  |
| N#CCC(=O)Nc1ccnc(-c2cc(-c3ccon3)n(Cc3ccccc3F)n2)n1 [Compound I-579] | > 1 µM |  |
| OCC1Cn2c(nnc2C(F)(F)F)CN1c1nc(-c2cc(-c3ccon3)n(Cc3ccccc3F)n2)ncc1F (centres unmarked) [Compound I-633] | < 0.1 µM |  |
| Fc1ccccc1Cn1nc(-c2ncc(F)c(NCC(F)(F)F)n2)cc1-c1ccon1 [Compound I-466] | < 0.1 µM |  |
| CC(=O)c1cc(-c2ncc(F)c(N3CCC[C@H](C)[C@@H]3C(=O)O)n2)nn1Cc1ccccc1F [Compound I-463] | 0.101 to 1 µM |  |
| CC(C)(C)OC(=O)N1CC(O)(CNc2nc(-c3cc(-c4ccon4)n(Cc4ccccc4F)n3)ncc2F)C1 [Compound I-351] | < 0.1 µM |  |
| O=C(CN1C(=O)c2ccccc2C1=O)NCC(=O)Nc1ccnc(-c2cc(-c3ccon3)n(Cc3ccccc3F)n2)n1 [Compound I-602] | > 1 µM |  |
| CC(=O)OCC(=O)Nc1nc(-c2cc(-c3ccon3)n(Cc3ccccc3F)n2)ncc1F [Compound I-498] | 0.101 to 1 µM |  |
| C[C@@H](Nc1nc(-c2cc(-c3ccon3)n(Cc3ccccc3F)n2)ncc1F)c1nnc(C(F)(F)F)o1 [Compound I-622] | < 0.1 µM |  |
| O=S(=O)(CCNc1nc(-c2cc(-c3ccon3)n(Cc3ccccc3F)n2)ncc1F)NC[C@H](O)CO [Compound I-437] | 0.101 to 1 µM |  |
